This passage reports IC50 results from patent US9340590B2 (priority 2011, dated 2016).

Like-named read-outs stand apart in the source and are kept apart here. Positions of bridges follow the written chain, without caps; N, C: chain ends. Non-standard residues stand in square brackets, D forms with d. Residues, ends and D or L forms follow the SMILES beside them. Lys(Me2) = CN(C)CCCC[C@H](N)C(=O)O

Holding throughout (assay): cell-based
In assay [1] the target is T1, hNav1.5 (Homo sapiens, UniProt Q14524).
T1 sequence (Q14524 whole entry, looked up): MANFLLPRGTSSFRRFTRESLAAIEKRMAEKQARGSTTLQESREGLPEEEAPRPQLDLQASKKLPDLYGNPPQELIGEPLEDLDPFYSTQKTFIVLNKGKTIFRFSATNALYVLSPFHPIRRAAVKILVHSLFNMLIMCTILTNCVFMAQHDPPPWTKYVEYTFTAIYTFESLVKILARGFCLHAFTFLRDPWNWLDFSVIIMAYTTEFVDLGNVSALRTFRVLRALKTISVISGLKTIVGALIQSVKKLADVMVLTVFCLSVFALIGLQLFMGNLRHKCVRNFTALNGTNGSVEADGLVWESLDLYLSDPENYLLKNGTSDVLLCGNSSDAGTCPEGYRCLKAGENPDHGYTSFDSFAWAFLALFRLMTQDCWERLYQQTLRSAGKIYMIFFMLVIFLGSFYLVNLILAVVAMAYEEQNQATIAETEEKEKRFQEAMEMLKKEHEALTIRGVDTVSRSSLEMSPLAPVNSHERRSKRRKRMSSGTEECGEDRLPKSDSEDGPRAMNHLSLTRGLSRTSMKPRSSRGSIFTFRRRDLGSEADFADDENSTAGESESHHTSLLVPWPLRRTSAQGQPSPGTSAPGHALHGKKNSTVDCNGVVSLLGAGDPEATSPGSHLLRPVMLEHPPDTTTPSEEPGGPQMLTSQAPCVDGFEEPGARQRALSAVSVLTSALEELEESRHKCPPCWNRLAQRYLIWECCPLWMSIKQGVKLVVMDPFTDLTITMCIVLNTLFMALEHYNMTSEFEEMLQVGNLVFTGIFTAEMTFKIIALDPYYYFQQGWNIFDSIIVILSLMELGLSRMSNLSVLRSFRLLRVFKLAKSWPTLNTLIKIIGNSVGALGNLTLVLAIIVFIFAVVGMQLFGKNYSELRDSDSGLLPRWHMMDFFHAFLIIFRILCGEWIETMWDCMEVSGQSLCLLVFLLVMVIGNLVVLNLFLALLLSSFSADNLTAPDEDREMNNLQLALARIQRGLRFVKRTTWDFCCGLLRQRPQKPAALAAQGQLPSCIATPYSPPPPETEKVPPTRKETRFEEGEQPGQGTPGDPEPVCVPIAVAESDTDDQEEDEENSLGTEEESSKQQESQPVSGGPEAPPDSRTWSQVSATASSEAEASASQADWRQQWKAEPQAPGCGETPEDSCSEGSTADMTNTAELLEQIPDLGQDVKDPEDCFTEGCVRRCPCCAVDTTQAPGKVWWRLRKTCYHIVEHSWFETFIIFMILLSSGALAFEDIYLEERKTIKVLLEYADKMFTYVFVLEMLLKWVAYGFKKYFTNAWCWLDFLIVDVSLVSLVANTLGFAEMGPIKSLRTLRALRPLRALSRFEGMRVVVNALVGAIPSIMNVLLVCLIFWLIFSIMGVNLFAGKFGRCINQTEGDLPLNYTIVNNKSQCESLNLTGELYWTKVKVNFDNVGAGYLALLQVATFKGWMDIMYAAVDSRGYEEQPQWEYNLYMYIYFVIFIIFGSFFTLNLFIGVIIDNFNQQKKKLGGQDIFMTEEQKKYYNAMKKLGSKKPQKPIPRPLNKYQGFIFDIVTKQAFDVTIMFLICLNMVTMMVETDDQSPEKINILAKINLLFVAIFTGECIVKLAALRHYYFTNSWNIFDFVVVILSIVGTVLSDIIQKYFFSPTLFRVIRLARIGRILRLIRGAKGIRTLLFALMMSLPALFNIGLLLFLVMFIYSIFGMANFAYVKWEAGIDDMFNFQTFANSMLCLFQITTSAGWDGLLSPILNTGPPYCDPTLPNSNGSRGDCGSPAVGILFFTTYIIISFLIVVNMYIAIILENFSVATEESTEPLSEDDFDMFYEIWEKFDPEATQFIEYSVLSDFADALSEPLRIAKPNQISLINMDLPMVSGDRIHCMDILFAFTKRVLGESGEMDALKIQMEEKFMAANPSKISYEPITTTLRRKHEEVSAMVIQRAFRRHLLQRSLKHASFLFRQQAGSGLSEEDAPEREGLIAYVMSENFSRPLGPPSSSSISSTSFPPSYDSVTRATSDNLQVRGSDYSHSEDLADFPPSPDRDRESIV
For another assay, the target named is hNav1.3 (Homo sapiens, UniProt Q9NY46). To be noted: IonWorks Quattro, read-out: IWQ Use Nav1.3. (In general: In patch-clamp work, channel activity is measured electrically.)
Assay [2] deals with T2, hNav1.7 (Homo sapiens, UniProt Q15858). To be noted: Nav1.7 Use IC50.
T2 sequence (Q15858 whole entry, looked up): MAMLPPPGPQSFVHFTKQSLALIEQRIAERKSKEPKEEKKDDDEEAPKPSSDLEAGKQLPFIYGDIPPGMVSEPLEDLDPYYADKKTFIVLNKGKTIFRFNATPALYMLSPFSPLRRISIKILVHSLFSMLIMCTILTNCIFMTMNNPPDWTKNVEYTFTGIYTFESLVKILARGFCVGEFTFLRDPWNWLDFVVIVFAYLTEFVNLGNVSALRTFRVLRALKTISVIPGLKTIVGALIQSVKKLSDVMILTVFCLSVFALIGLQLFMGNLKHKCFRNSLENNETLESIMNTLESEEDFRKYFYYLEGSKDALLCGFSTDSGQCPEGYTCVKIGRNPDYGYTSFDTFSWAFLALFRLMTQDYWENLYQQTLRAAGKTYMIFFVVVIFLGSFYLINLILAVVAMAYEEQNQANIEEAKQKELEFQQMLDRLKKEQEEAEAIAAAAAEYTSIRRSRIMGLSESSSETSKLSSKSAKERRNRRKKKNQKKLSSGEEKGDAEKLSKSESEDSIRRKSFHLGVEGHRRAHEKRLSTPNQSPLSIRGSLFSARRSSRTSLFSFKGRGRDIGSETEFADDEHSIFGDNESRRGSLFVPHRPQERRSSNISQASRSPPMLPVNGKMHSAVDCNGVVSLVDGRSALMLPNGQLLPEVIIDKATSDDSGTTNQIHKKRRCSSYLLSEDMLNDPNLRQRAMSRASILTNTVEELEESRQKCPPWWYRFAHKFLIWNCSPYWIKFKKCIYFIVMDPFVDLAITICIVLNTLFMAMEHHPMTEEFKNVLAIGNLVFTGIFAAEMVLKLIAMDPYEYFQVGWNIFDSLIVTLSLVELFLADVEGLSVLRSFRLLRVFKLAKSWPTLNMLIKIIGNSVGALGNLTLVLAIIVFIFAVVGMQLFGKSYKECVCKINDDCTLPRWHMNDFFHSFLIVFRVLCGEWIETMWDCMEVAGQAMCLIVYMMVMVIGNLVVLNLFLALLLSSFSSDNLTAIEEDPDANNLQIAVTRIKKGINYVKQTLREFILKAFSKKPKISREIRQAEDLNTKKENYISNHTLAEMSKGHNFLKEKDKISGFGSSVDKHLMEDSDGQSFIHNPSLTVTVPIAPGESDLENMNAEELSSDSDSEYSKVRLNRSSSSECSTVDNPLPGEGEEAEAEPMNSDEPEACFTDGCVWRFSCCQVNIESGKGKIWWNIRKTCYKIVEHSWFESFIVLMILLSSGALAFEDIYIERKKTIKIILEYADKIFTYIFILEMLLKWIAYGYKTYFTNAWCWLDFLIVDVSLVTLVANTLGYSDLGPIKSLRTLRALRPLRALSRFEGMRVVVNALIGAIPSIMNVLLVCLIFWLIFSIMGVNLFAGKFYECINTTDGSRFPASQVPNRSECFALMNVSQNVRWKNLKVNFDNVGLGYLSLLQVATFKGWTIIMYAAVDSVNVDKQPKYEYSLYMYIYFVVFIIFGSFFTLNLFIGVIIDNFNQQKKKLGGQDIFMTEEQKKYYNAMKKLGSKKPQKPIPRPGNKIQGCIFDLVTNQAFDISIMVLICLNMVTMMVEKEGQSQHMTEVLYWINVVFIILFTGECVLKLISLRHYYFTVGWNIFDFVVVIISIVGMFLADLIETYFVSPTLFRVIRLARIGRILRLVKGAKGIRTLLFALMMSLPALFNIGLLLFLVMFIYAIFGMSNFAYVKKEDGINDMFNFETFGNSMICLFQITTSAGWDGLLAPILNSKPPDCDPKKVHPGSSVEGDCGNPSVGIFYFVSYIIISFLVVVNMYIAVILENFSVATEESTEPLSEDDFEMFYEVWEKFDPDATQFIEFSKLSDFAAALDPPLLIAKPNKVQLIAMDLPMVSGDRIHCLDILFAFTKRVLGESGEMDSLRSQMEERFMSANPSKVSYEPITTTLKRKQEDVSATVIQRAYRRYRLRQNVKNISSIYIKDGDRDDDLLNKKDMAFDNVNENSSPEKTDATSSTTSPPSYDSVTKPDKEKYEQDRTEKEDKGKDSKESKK
In assay [3] the target is T1, hNav1.5. The source holds these as a separate data set.
Assay [4] deals with T2, hNav1.7. Format: cell-based.
Where [5] appears, read: clamped to −110 mV, depolarized to −10 mV, 5 min after compound, n=2.
[6] abbreviates: IonWorks Quattro, use-dependent block, hNav1.5, read-out: IWQ Use Nav1.5.
The mark [7] stands for this setting: IonWorks Quattro, use-dependent block, hNav1.7, read-out: IWQ Use Nav1.7.

Turning to `CC[C@H](C)[C@@H]1NC(=O)[C@@H]2CSSC[C@@H]3NC(=O)[C@H](C(C)C)NC(=O)[C@H](CC(C)C)NC(=O)[C@H](CC(N)=O)NC(=O)[C@@H]4CCCN4C(=O)[C@H](CCCNC(=N)N)NC(=O)[C@H](CSSC[C@H](NC(=O)[C@@H](N)CC(=O)O)C(=O)N[C@@H](CC(C)C)C(=O)NCC(=O)N[C@@H](Cc4ccccc4)C(=O)N[C@@H](Cc4ccc(O)cc4)C(=O)N[C@@H](CCCNC(=N)N)C(=O)N[C@@H](CCCCN)C(=O)N2)NC(=O)[C@H](CSSC[C@@H](C(=O)N[C@@H](CCCCN)C(=O)N[C@@H](Cc2ccc(O)cc2)C(=O)N[C@H](C(=O)N[C@@H](Cc2ccccc2)C(N)=O)C(C)C)NC(=O)[C@H](Cc2c[nH]c4ccccc24)NC(=O)[C@H](CCCCN)NC(=O)[C@H](Cc2cnc[nH]2)NC(=O)[C@H]([C@@H](C)O)NC(=O)[C@H](CCCNC(=N)N)NC(=O)[C@H](CO)NC3=O)NC(=O)[C@H](CCCCN)NC(=O)[C@H](CC(=O)O)NC(=O)[C@H](CC(N)=O)NC(=O)[C@H](CC(=O)O)NC(=O)[C@@H]2CCCN2C1=O` [SEQ ID NO: 286] (H-DCLGFYRKCIPDNDKCCRPNLVCSRTHKWCKYVF-NH2; disulfide 2-17, 9-23, 16-30), the IC50 was 6380 nM against hNav1.5 [1] (IWQ Use Nav1.5); 520 nM at hNav1.3 (setting [5]); 69 nM against hNav1.7 [2]; 10000 nM against hNav1.5 [3]; 970 nM on hNav1.7 [4].
On to `CC[C@H](C)[C@@H]1NC(=O)[C@@H]2CSSC[C@@H]3NC(=O)[C@H](C(C)C)NC(=O)[C@H](CC(C)C)NC(=O)[C@H](CC(N)=O)NC(=O)[C@@H]4CCCN4C(=O)[C@H](CCCNC(=N)N)NC(=O)[C@H](CSSC[C@H](NC(=O)[C@@H](N)CC(=O)O)C(=O)N[C@@H](CC(C)C)C(=O)NCC(=O)N[C@@H](Cc4ccccc4)C(=O)N[C@@H](Cc4ccccn4)C(=O)N[C@@H](CCCNC(=N)N)C(=O)N[C@@H](CCCCN)C(=O)N2)NC(=O)[C@H](CSSC[C@@H](C(=O)N[C@@H](CCCCN)C(=O)N[C@@H](Cc2ccc(O)cc2)C(=O)N[C@H](C(=O)N[C@@H](Cc2ccccc2)C(N)=O)C(C)C)NC(=O)[C@H](Cc2c[nH]c4ccccc24)NC(=O)[C@H](CCCCN)NC(=O)[C@H](Cc2c[nH]cn2)NC(=O)[C@H]([C@@H](C)O)NC(=O)[C@H](CCCNC(=N)N)NC(=O)[C@H](CO)NC3=O)NC(=O)[C@H](CCCCN)NC(=O)[C@H](CC(=O)O)NC(=O)[C@H](CC(N)=O)NC(=O)[C@H](CC(=O)O)NC(=O)[C@@H]2CCCN2C1=O` [SEQ ID NO: 294], for which the IC50 worked out at 9110 nM at hNav1.5 [1] (IonWorks Quattro, clamped to −110 mV, depolarized to −10 mV, 5 min after compound, n=2, read-out: IWQ Use Nav1.5); 90 nM on hNav1.3 (setting [5]); 42 nM against hNav1.7 [2]; 10000 nM on hNav1.5 [3]; 370 nM at hNav1.7 [4] (IonWorks Quattro, clamped to −110 mV, depolarized to −10 mV, 5 min after compound, n=2, read-out: IWQ Use Nav1.7).
As for `CC[C@H](C)[C@@H]1NC(=O)[C@@H]2CSSC[C@@H]3NC(=O)[C@H](C(C)C)NC(=O)[C@H](CC(C)C)NC(=O)[C@H](CC(N)=O)NC(=O)[C@@H]4CCCN4C(=O)[C@H](CCCNC(=N)N)NC(=O)[C@H](CSSC[C@H](NC(=O)[C@@H](N)CC(=O)O)C(=O)N[C@@H](CC(C)C)C(=O)NCC(=O)N[C@@H](Cc4ccccc4)C(=O)N[C@@H](CCSC)C(=O)N[C@@H](CCC(=O)O)C(=O)N[C@@H](CCCCN)C(=O)N2)NC(=O)[C@H](CSSC[C@@H](C(=O)N[C@@H](CCCCN)C(=O)N[C@@H](Cc2ccc(O)cc2)C(=O)N[C@H](C(=O)N[C@@H](Cc2ccccc2)C(N)=O)C(C)C)NC(=O)[C@H](Cc2c[nH]c4ccccc24)NC(=O)[C@H](CCCCN)NC(=O)[C@H](Cc2cnc[nH]2)NC(=O)[C@H]([C@@H](C)O)NC(=O)[C@H](CCCNC(=N)N)NC(=O)[C@H](CO)NC3=O)NC(=O)[C@H](CCCCN)NC(=O)[C@H](CC(=O)O)NC(=O)[C@H](CC(N)=O)NC(=O)[C@H](CC(=O)O)NC(=O)[C@@H]2CCCN2C1=O` [[Glu7]GpTx-1(1-34)] (H-DCLGFMEKCIPDNDKCCRPNLVCSRTHKWCKYVF-NH2; disulfide 2-17, 9-23, 16-30), the IC50 at hNav1.5 [1] (setting [6]) is 19100 nM; at hNav1.3 (use-dependent block, hNav1.3), 1680 nM; at hNav1.7 [2], 98 nM; at hNav1.5 [3] it was more than 10000 nM; on hNav1.7 [4] it was 880 nM.
Take `CC[C@H](C)[C@@H]1NC(=O)[C@@H]2CSSC[C@@H]3NC(=O)[C@H](C(C)C)NC(=O)[C@H](CC(C)C)NC(=O)[C@H](CC(N)=O)NC(=O)[C@@H]4CCCN4C(=O)[C@H](CCCNC(=N)N)NC(=O)[C@H](CSSC[C@H](NC(=O)[C@@H](N)CC(=O)O)C(=O)N[C@@H](CC(C)C)C(=O)NCC(=O)N[C@@H](Cc4ccccc4)C(=O)N[C@@H](CCSC)C(=O)N[C@@H](CCCCN(C)C)C(=O)N[C@@H](CCCCN)C(=O)N2)NC(=O)[C@H](CSSC[C@@H](C(=O)N[C@@H](CCCCN)C(=O)N[C@@H](Cc2ccc(O)cc2)C(=O)N[C@H](C(=O)N[C@@H](Cc2ccccc2)C(N)=O)C(C)C)NC(=O)[C@H](Cc2c[nH]c4ccccc24)NC(=O)[C@H](CCCCN)NC(=O)[C@H](Cc2c[nH]cn2)NC(=O)[C@H]([C@@H](C)O)NC(=O)[C@H](CCCNC(=N)N)NC(=O)[C@H](CO)NC3=O)NC(=O)[C@H](CCCCN)NC(=O)[C@H](CC(=O)O)NC(=O)[C@H](CC(N)=O)NC(=O)[C@H](CC(=O)O)NC(=O)[C@@H]2CCCN2C1=O` [[K(Me2)7]GpTx-1(1-34)] (H-DCLGFM[Lys(Me2)]KCIPDNDKCCRPNLVCSRTHKWCKYVF-NH2; disulfide 2-17, 9-23, 16-30): the IC50 was 13300 nM at hNav1.5 [1] (setting [6]); 270 nM on hNav1.3 (use-dependent block, hNav1.3); 20 nM against hNav1.7 [2]; more than 10000 nM at hNav1.5 [3]; 820 nM at hNav1.7 [4] (setting [7]).
With `CC[C@H](C)[C@@H]1NC(=O)[C@@H]2CSSC[C@@H]3NC(=O)[C@H](C(C)C)NC(=O)[C@H](CC(C)C)NC(=O)[C@H](CC(N)=O)NC(=O)[C@@H]4CCCN4C(=O)[C@H](CCCNC(=N)N)NC(=O)[C@H](CSSC[C@H](NC(=O)[C@@H](N)CC(=O)O)C(=O)N[C@@H](CC(C)C)C(=O)NCC(=O)N[C@@H](Cc4ccccc4)C(=O)N[C@@H](CCSC)C(=O)N[C@@H](CCCNC(=N)N)C(=O)N[C@@H](CCCCN(C)C)C(=O)N2)NC(=O)[C@H](CSSC[C@@H](C(=O)N[C@@H](CCCCN)C(=O)N[C@@H](Cc2ccc(O)cc2)C(=O)N[C@H](C(=O)N[C@@H](Cc2ccccc2)C(N)=O)C(C)C)NC(=O)[C@H](Cc2c[nH]c4ccccc24)NC(=O)[C@H](CCCCN)NC(=O)[C@H](Cc2c[nH]cn2)NC(=O)[C@H]([C@@H](C)O)NC(=O)[C@H](CCCNC(=N)N)NC(=O)[C@H](CO)NC3=O)NC(=O)[C@H](CCCCN)NC(=O)[C@H](CC(=O)O)NC(=O)[C@H](CC(N)=O)NC(=O)[C@H](CC(=O)O)NC(=O)[C@@H]2CCCN2C1=O` [[K(Me2)8]GpTx-1(1-34)], the IC50 at hNav1.5 [1] (setting [6]) is 9460 nM; at hNav1.3 (use-dependent block, hNav1.3), 180 nM; on hNav1.7 [2] it was 4 nM; on hNav1.5 [3], more than 10000 nM; on hNav1.7 [4] (setting [7]), 190 nM.
